The record followed here is patent US8129371B2, “Thienopyrimidine and pyrazolopyrimidine compounds and their use as mTOR kinase and PI3 kinase inhibitors” (Wyeth LLC, priority 2007, dated 2012).

Like-named read-outs stand apart in the source and are kept apart here.

Experiment [1] deals with T1, PI3K (Homo sapiens, UniProt P48736).
T1 construct: PI3 Kinase γ IC50; other: PI3 Kinase γ; other: PI3 Kinase γ isoform, fluorescence polarization
In words: Fluorescence polarization assay for PI3K. In kind it is biochemical. As to conditions: read-out: PI3 Kinase γ IC50. Here is the method: (§1) This assay is used to determine the IC50 of compounds of the present invention as it identifies inhibitors of PI3 kinase by measuring inhibition.
(§2) The assay is run by placing 5 μL of diluted enzyme per well, then 5 μL of diluted compound (or 9.5 μL enzyme then 0.5 μL compound in DMSO) is added and mixed. Then, 10 μL substrate is added to start the reaction. The samples are incubated 30-60 minutes, then the reaction is stopped by adding 20 μL stop/detector mix. PI3K is diluted with reaction buffer (e.g., 5 μL or 7.5 μL PI3K into 620 μL reaction buffer), and 5 μL of diluted enzyme is used per well. 5 μL reaction buffer or drug diluted in buffer (e.g., 4 μL/100 so final DMSO is 1% in reaction) is added to each. Pipetting up and down mixes the samples. Alternatively, the enzyme can be diluted to 1215 μL. In this case 9.8 μL is added per well and 0.2 μL compound is added in DMSO. To prepare 1 mL of substrate solution, 955 μL reaction buffer, 40 μL PIP2, and 2.5 μL ATP are mixed. 10 μL of substrate is added to each well to start the reaction.
(§3) Stop/detector mix is prepared by mixing 4 μL Red detector and 1.6 μL or 2.0 μL GST-GRP with 1 mL Stop buffer, which results in 10 nM probe and 70 nM GST-GRP). 20 μL of the stop/detector mix is added to each well to stop the reaction. The plates are read after 30-90 minutes keeping the red probe solutions dark. For the zero time point, stop/detector mix is added to the enzyme just before adding substrate. For an extra control, stop/detector mix is added to buffer (no enzyme) and substrate or to just buffer (no substrate). […] Plates are read on machines with filters for Tamra. The units are mP with no enzyme controls reading app 190-220 mP units. Fully active enzyme reduces fluorescence polarization down to 70-100 mP after 30 minutes.

Experiment [2] has as its target T2, PI3K (Homo sapiens, UniProt P42336).
T2 construct: PI3 Kinase α IC50; other: PI3 Kinase α; other: PI3 Kinase α isoform, fluorescence polarization
In words: Fluorescence polarization assay for PI3K. In kind it is biochemical. The conditions noted are these: read-out: PI3 Kinase α IC50. As to the method:
as §1, §2, §3

Experiment [3] deals with prostate line LNCap. In words: In vitro cell culture growth assay (MTS), LNCap. The experiment is classed as cell-based. As to conditions: Homo sapiens, LNCaP, 72 h, LNCap cells, three days after drug treatment. Here is the method:
(§4) Human tumor cell lines used include prostate lines LNCap and PC3MM2, breast lines MDA468, MCF7, renal line HTB44 (A498), colon line HCT116, and ovarian line OVCAR3. Cells were plated in 96-well culture plates. One day following plating, the inhibitors were added to cells. Three days after drug treatment, viable cell densities were determined by metabolic conversion (by viable cells) of the dye MTS, a well-established cell proliferation assay. The assays were performed using an assay kit purchased from Promega Corp. (Madison, Wis.) following the protocol supplied with the kit. The MTS assay results were read in a 96-well plate reader by measuring absorbance at 490 nm. The effect of each treatment was calculated as percent of control growth relative to the vehicle-treated cells grown in the same culture plate.

The target in experiment [4] is T3, Human mTOR (FLAG-TOR) (Homo sapiens, UniProt P42345).
T3 construct: FLAG
In words: Human mTOR kinase assay with purified enzyme, DELFIA format. The experiment is classed as biochemical. Here is the method:
Enzymes are first diluted in kinase assay buffer (10 mM HEPES (pH 7.4), 50 mM NaCl, 50 mM β-glycerophosphate, 10 mM MnCl2, 0.5 mM DTT, 0.25 mM microcystin LR, and 100 mg/mL BSA). To each well, 12 μL of the diluted enzyme is mixed briefly with 0.5 μL test inhibitor or control vehicle dimethylsulfoxide (DMSO). […] The reaction plate is incubated for 2 hours (linear at 1-6 hours) at room temperature with gentle shaking and then terminated by adding 25 μL Stop buffer (20 mM HEPES (pH 7.4), 20 mM EDTA, 20 mM EGTA). […] The DELFIA Assay buffer and Enhancement solution can be purchased from PerkinElmer. 45 μL of the terminated kinase reaction mixture is transferred to a MaxiSorp plate (Nunc) containing 55 μL PBS. The His6-S6K is allowed to attach for 2 hours after which the wells are aspirated and washed once with PBS. 100 μL of DELFIA Assay buffer with 40 ng/mL Eu—P(T389)-S6K antibody is added. The antibody binding is continued for 1 hour with gentle agitation. The wells are then aspirated and washed 4 times with PBS containing 0.05% Tween-20 (PBST). 100 μL of DELFIA Enhancement solution is added to each well and the plates are read in a PerkinElmer Victor model plate reader. Data obtained is used to calculate enzymatic activity and enzyme inhibition by potential inhibitors.

The test system of experiment [5] is breast line MDA468. In words: In vitro cell culture growth assay (MTS), MDA468. As to conditions: Homo sapiens, 72 h, MDA468 cells, three days after drug treatment. In kind it is cell-based. Here is the method: as §4
[6] abbreviates: PI3 Kinase γ isoform, fluorescence polarization.
[7] abbreviates: PI3 Kinase α isoform, fluorescence polarization.
[8] abbreviates: purified human mTOR enzyme, DELFIA format.

T1 sequence (P48736 whole entry, canonical isoform): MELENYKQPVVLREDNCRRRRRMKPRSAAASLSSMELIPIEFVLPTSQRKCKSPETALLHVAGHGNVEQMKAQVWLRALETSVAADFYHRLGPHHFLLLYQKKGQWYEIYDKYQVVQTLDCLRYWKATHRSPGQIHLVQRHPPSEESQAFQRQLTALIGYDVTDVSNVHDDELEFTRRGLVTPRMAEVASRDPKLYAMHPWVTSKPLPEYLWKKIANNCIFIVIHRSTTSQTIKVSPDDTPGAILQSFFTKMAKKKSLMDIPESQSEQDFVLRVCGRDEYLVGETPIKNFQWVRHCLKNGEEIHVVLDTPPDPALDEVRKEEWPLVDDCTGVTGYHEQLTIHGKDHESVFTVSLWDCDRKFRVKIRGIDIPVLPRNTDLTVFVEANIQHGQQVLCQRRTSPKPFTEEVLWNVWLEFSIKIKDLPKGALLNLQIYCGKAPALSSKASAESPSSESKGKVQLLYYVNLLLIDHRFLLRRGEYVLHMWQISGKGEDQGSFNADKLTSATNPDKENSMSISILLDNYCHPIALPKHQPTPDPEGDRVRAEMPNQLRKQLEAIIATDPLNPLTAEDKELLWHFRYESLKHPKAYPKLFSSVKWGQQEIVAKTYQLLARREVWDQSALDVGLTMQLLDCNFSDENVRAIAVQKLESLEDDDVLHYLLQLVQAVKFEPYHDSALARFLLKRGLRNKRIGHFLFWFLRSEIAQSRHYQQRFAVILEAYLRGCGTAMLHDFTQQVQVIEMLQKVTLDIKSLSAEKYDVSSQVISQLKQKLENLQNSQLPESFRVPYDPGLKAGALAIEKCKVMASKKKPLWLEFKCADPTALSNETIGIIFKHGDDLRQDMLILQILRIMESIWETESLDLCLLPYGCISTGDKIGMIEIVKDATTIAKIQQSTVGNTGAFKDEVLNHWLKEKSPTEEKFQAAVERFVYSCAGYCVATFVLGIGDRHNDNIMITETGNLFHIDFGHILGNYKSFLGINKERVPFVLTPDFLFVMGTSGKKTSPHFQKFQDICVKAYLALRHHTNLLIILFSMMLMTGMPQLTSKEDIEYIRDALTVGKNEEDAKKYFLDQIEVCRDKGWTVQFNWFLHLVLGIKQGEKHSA
T2 sequence (P42336 whole entry, canonical isoform): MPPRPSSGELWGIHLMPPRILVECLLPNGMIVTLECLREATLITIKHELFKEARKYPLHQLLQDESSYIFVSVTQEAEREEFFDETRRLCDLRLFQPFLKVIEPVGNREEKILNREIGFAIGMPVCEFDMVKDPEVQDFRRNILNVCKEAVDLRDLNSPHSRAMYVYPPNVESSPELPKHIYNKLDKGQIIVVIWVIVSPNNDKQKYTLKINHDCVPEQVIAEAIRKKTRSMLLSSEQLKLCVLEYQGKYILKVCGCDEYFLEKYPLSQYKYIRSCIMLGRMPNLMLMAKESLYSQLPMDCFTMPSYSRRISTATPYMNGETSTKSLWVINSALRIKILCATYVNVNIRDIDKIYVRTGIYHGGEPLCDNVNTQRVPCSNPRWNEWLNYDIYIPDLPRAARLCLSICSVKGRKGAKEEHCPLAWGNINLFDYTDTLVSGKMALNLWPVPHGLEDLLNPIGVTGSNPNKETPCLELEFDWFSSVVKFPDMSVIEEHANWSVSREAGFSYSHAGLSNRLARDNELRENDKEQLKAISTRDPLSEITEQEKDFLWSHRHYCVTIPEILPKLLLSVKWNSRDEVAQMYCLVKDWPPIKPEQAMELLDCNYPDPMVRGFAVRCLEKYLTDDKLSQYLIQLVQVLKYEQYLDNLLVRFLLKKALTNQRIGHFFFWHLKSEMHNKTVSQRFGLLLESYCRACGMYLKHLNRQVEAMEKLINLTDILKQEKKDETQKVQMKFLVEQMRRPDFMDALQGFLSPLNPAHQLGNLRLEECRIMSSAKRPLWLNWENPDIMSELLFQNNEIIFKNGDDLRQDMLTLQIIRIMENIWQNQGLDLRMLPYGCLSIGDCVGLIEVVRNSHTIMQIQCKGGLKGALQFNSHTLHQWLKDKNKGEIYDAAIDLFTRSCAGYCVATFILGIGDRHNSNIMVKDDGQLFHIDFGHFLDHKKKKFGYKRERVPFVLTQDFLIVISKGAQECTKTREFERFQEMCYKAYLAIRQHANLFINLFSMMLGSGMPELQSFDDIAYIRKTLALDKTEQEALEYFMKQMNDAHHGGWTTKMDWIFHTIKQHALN

As for `CN1CCN(c2ccc(NC(=O)Nc3ccc(-c4nc(N5CC6CCC(C5)O6)c5cnn(C6CCC7(CCCO7)CC6)c5n4)cc3)cc2)CC1` (single isomer, unassigned) [Example 313, 1-[4-(4-methylpiperazin-1-yl)phenyl]-3-(4-{4-(8-oxa-3-azabicyclo[3.2.1]oct-3-yl)-1-[(5r,8r)-1-oxaspiro[4.5]dec-8-yl]-1H-pyrazolo[3,4-d]pyrimidin-6-yl}phenyl)urea], the IC50 (usually the concentration that inhibits the measured activity by half) in experiment [1] (setting [6]) is 1.45 µM; in experiment [2] (setting [7]), 0.581 µM; in experiment [3], 0.001 µM; in experiment [4] (setting [8]), 0.000365 µM; in experiment [5] it was 0.015 µM.
In the case of `COC(=O)N1CCC(n2ncc3c(N4C5CCC4COC5)nc(-c4ccc(NC(=O)Nc5cccnc5)cc4)nc32)CC1` [Example 361, methyl 4-[4-(3-oxa-8-azabicyclo[3.2.1]oct-8-yl)-6-{4-[(pyridin-3-ylcarbamoyl)amino]phenyl}-1H-pyrazolo[3,4-d]pyrimidin-1-yl]piperidine-1-carboxylate], the IC50 was 4.07 µM in experiment [1] (setting [6]); 1.83 µM in experiment [2] (setting [7]); 0.002 µM in experiment [3]; 0.000165 µM in experiment [4] (setting [8]); 0.02 µM in experiment [5].
With `CC(C)n1ncc2c(N3CC4CCC(C3)O4)nc(-c3ccc(NC(=O)OCCCO)cc3)nc21` [Example 145, 3-hydroxypropyl {4-[1-isopropyl-4-(8-oxa-3-azabicyclo[3.2.1]oct-3-yl)-1H-pyrazolo[3,4-d]pyrimidin-6-yl]phenyl}carbamate], the IC50 in experiment [1] (PI3 Kinase γ) is greater than 10 µM; in experiment [2] (PI3 Kinase α) it was 3.36 µM; in experiment [3], 0.25 µM; in experiment [4], 0.00275 µM; in experiment [5] it was 12 µM.
For `CN(C)CCOc1ccc(NC(=O)Nc2ccc(-c3nc(N4C[C@@H]5C[C@H]4CO5)c4cnn(CC(F)(F)F)c4n3)cc2)cc1` [Example 300, 1-{4-[2-(dimethylamino)ethoxy]phenyl}-3-(4-{4-[(1S,4S)-2-oxa-5-azabicyclo[2.2.1]hept-5-yl]-1-(2,2,2-trifluoroethyl)-1H-pyrazolo[3,4-d]pyrimidin-6-yl}phenyl)urea], the IC50 came to 5.28 µM in experiment [1] (setting [6]); 0.572 µM in experiment [2] (setting [7]); 0.001 µM in experiment [3]; 0.0055 µM in experiment [4] (setting [8]); 0.012 µM in experiment [5].
Turning to `O=C(Nc1ccc(-c2nc(N3C4CCC3COC4)c3cnn(CC(F)(F)F)c3n2)cc1)Nc1ccc(N2CCOCC2)nc1` [Example 274, 1-(6-morpholin-4-ylpyridin-3-yl)-3-{4-[4-(3-oxa-8-azabicyclo[3.2.1]oct-8-yl)-1-(2,2,2-trifluoroethyl)-1H-pyrazolo[3,4-d]pyrimidin-6-yl]phenyl}urea], the IC50 in experiment [1] (PI3 Kinase γ) was 7.31 µM; in experiment [2] (PI3 Kinase α), 1.21 µM; in experiment [3], less than 0.001 µM; in experiment [4] it was 0.000245 µM; in experiment [5] it was 0.02 µM.
With `CNC(=O)Nc1ccc(-c2nc(N3CC4CCC(C3)O4)c3sccc3n2)cc1` [Example 406, 1-methyl-3-{4-[4-(8-oxa-3-azabicyclo[3.2.1]oct-3-yl)thieno[3,2-d]pyrimidin-2-yl]phenyl}urea], the IC50 in experiment [1] (setting [6]) was greater than 10 µM; in experiment [2] (setting [7]), 0.423 µM; in experiment [3], 0.085 µM; in experiment [4] (setting [8]) it was 0.00094 µM; in experiment [5] it was 0.4 µM.
On the same counts, the results for `CN1CCN(Cc2cc3nc(-c4ccc(NC(=O)NC5CC5)cc4)nc(N4CC5CCC(C4)O5)c3s2)CC1` [Example 424, 1-cyclopropyl-3-(4-{6-[(4-methylpiperazin-1-yl)methyl]-4-(8-oxa-3-azabicyclo[3.2.1]oct-3-yl)thieno[3,2-d]pyrimidin-2-yl}phenyl)urea] are 3.67 µM, 0.874 µM, 0.4 µM, 0.0155 µM and 2 µM.
In the case of `CN1CCN(C2CCC(n3ncc4c(N5CC6CCC(C5)O6)nc(-c5ccc(NC(=O)Nc6ccccc6)cc5)nc43)CC2)CC1` (stereo not drawn) [Example 373, 1-(4-{1-[4-(4-methylpiperazin-1-yl)cyclohexyl]-4-(8-oxa-3-azabicyclo[3.2.1]oct-3-yl)-1H-pyrazolo[3,4-d]pyrimidin-6-yl}phenyl)-3-phenylurea], the IC50 in experiment [1] (setting [6]) was 1.12 µM; in experiment [2] (setting [7]) it was 0.217 µM; in experiment [3] it was 0.22 µM; in experiment [4] (setting [8]), 0.000385 µM; in experiment [5] it was 0.2 µM.
Consider `CCn1ncc2c(N3CC4CCC(C3)O4)nc(-c3ccc(NC(=O)Nc4ccc(OCCO)cc4)cc3)nc21` [Example 281, 1-{4-[1-ethyl-4-(8-oxa-3-azabicyclo[3.2.1]oct-3-yl)-1H-pyrazolo[3,4-d]pyrimidin-6-yl]phenyl}-3-[4-(2-hydroxyethoxy)phenyl]urea], for which the IC50 in experiment [1] (PI3 Kinase γ) amounted to 1.1 µM; in experiment [2] (PI3 Kinase α), 0.173 µM; in experiment [3], 0.004 µM; in experiment [4], 0.00108 µM; in experiment [5], 0.019 µM.
Regarding `CCOC(=O)N1CCC(n2ncc3c(N4CC5CCC(C4)O5)nc(-c4ccc(NC(=O)NCCCNC)cc4)nc32)CC1` [Example 38, ethyl 4-{6-[4-({[3-(methylamino)propyl]carbamoyl}amino)phenyl]-4-(8-oxa-3-azabicyclo[3.2.1]oct-3-yl)-1H-pyrazolo[3,4-d]pyrimidin-1-yl}piperidine-1-carboxylate], the IC50 in experiment [1] (PI3 Kinase γ) was determined as 11 µM; in experiment [2] (PI3 Kinase α), 1.76 µM; in experiment [3] it was 4.4 µM; in experiment [4], 0.0053 µM; in experiment [5] it was 7 µM.
In the case of `O=C(Nc1ccc(-c2nc(N3CC4CCC(C3)O4)c3cnn(CCO)c3n2)cc1)NC1CC1` [Example 197, 1-cyclopropyl-3-{4-[1-(2-hydroxyethyl)-4-(8-oxa-3-azabicyclo[3.2.1]oct-3-yl)-1H-pyrazolo[3,4-d]pyrimidin-6-yl]phenyl}urea], the IC50 came out at 12 µM in experiment [1] (PI3 Kinase γ); 1.34 µM in experiment [2] (PI3 Kinase α); 0.4 µM in experiment [3]; 0.00285 µM in experiment [4]; 1.4 µM in experiment [5].
In the case of `O=C(Nc1ccc(-c2nc(N3CC4CCC(C3)O4)c3cnn(C4CCC5(CCCO5)CC4)c3n2)cc1)NC1CC1` (single isomer, unassigned) [Example 316, 1-cyclopropyl-3-(4-{4-(8-oxa-3-azabicyclo[3.2.1]oct-3-yl)-1-[(5r,8r)-1-oxaspiro[4.5]dec-8-yl]-1H-pyrazolo[3,4-d]pyrimidin-6-yl}phenyl)urea], the IC50 is greater than 10 µM in experiment [1] (setting [6]); 4.56 µM in experiment [2] (setting [7]); 0.007 µM in experiment [3]; 0.000495 µM in experiment [4] (setting [8]); 0.16 µM in experiment [5].
